We go through 4 substances from US5922573A, “IL-1 receptor antagonists with enhanced inhibitory activity” (Dompe' S.p.A., priority 1994, dated 1999).

Assay [1] has as its system human osteosarcoma MG-63. Nature of the assay: Inhibition of IL-1β-induced IL-6 production in MG-63 cells. The format is cell-based. The following applies: MG-63 cells stimulated with IL-1 around 0.3 ng/ml, 48 hours. Here is the method: The quantity of IL-6 in the culture supernatants is measured by a commercial ELISA assay or determined in the biological assay of proliferation of 7TD1 cells.

Assay [2] has as its target T1, IL-1RII (Homo sapiens, UniProt P27930).
T1 construct: cells which express IL-1RII selectively (e.g. Burkitt's human lymphoma RAJI clone 1H7); endogenous in cells; host or cells: RAJI clone 1H7 (Burkitt's human lymphoma)
T1 sequence (P27930 14-398): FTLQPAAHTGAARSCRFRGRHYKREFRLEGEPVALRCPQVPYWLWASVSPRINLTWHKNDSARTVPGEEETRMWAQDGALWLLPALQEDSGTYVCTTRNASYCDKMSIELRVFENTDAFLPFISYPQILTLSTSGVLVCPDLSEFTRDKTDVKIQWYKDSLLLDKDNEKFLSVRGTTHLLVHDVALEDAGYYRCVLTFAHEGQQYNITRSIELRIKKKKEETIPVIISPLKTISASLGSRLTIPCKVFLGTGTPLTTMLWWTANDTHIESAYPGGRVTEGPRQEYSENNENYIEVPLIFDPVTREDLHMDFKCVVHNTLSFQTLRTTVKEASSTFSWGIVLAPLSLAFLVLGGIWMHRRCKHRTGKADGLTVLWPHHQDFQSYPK
The assay can be described thus: Binding to IL-1RII: displacement of 125I-IL-1β on cells expressing IL-1RII selectively. The following applies: displacement of 125I IL-1β equilibrium binding on 10^6 cells. As to the method:
(§1) The inhibitory activity of the improved IL-1ra mutants is measured in receptor binding assays, using IL-1ra as the reference standard. Cells which express IL-1RI selectively (e.g. the murine thymoma clone EL4-6.1) and cells which express IL-1RII selectively (e.g. Burkitt's human lymphoma RAJI clone 1H7) are chosen as target cells. The number of receptors per cell and the binding affinity (Kd) in both the lines are calculated from saturation curves obtained by incubating the cells (10^6 cells/test tube in a final volume of 0.1 ml of culture medium with NaN3) with increasing doses of IL-1β labelled with 125I in the presence or absence of a 500-fold molar excess of unlabelled IL-1β (for calculating non-specific binding, generally always less than 5-10%) for the optimum times and at the optimum temperatures for attaining equilibrium (generally 2 hours at room temperature) (Scapigliati et al. FEBS Lett. 243: 394, 1989). To calculate the inhibition activity, tests are conducted by incubating the cells with a concentration of radiolabelled IL-1β corresponding to approximately half of the Kd in the absence or in the presence of stepped doses of IL-1ra (reference standard) or of the improved mutant.
(§2) The improved inhibitory activity of the mutants is determined by calculating the shift of the inhibition curve towards the lower doses when compared with the curve of IL-1ra.
(In general: Displacement assays read how much labelled ligand stays bound in the presence of the test substance.)

In assay [3] the target is T2, IL-1RI (Mus musculus, UniProt P13504).
T2 construct: Cells which express IL-1RI selectively (e.g. the murine thymoma clone EL4-6.1); endogenous in cells; host or cells: EL4-6.1 (murine thymoma clone)
T2 sequence (P13504 20-576): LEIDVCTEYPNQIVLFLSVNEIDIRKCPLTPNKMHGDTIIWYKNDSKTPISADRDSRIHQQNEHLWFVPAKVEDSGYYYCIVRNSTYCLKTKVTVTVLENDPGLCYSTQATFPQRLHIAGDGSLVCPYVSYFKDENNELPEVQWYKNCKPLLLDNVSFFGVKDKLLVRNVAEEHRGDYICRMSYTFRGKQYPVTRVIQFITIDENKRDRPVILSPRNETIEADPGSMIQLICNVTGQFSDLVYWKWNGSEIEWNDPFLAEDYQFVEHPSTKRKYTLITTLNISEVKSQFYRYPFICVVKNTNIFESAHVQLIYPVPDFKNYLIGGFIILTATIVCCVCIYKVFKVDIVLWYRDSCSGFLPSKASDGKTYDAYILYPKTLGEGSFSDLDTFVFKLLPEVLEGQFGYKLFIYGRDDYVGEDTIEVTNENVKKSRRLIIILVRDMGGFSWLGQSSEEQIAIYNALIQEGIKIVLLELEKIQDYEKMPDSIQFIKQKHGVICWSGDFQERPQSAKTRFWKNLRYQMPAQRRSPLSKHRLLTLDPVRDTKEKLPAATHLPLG
Nature of the assay: Binding to IL-1RI: displacement of 125I-IL-1β on cells expressing IL-1RI selectively. Particulars: displacement of 125I IL-1β equilibrium binding on 10^6 cells; murine thymoma clone EL4-6.1. Here is the method: as §1, §2

The subject of assay [4] is murine thymocytes. The assay can be described thus: Inhibition of IL-1β-induced proliferation of murine thymocytes. Type of assay: cell-based, mouse. The following applies: for Thymocyte proliferation to IL-1β 300 pg/ml, ID50: C3H/HeJ thymocytes with PHA, 72 hours; for Thymocyte proliferation to IL-1β 30 pg/ml, ID50: murine thymocytes. As to the method:
1. Proliferation of murine thymocytes: normal thymocytes are obtained by breaking up thymus glands of C3H/HeJ mice (resistant to bacterial endotoxin) aged 4-8 weeks. The thymocytes (5×10^5 cells/well of Cluster^96 plates) are incubated for 72 hours in RPMI-1640 culture medium with addition of antibiotics, L-glutamine, 2-ME, HEPES and 5% foetal calf serum at 37° C. in air with 5% CO2. […] To determine the proliferation of the thymocytes induced by IL-1, at the end of 72 hours of incubation […] of culture medium containing […] of tritiated thymidine are added to each well. After another 18 hours, the cells from each well are harvested onto small glass-fibre disks and the radioactivity incorporated (proportional to the proliferation of the cells) is measured with a β-counter. For determination of the inhibitory capacity of the improved mutants of IL-1ra , the proliferation of the thymocytes is measured in response to the minimum dose of IL-1 that induces optimum proliferation (generally around 0.3 ng/ml) in the absence or in the presence of stepped doses of IL-1ra (control standard) or of the improved mutants. The improved inhibitory activity of the mutants is determined by calculating the shift of the inhibition curve towards the lower doses when compared with the curve of IL-1ra .

Assay [5] relates to IL-1β. The assay can be described thus: Inhibition of IL-1β-induced neutrophilia in vivo. Particulars: neutrophilia induced in the mouse by 150 ng/kg IL-1β; antagonist intraperitoneally at -15 min, 0, +15 min; read four hours after treatment. As to the method: 2. Induction of neutrophilia: C3H/HeJ mice or mice of some other strain (3 mice/test group) receive stepped doses of IL-1β with a single intraperitoneal administration. The increase of circulating neutrophils induced by IL-1 is evaluated by cytofluorimetry four hours after the treatment.

For assay [6], the system named is IL-1β. Nature of the assay: Inhibition of IL-1β-induced hypoglycaemia in vivo. Particulars: hypoglycaemia induced in the mouse by 5.0 μg/kg IL-1β, intraperitoneal, serum glucose after two hours. Here is the method: 1. Induction of hypoglycaemia: C3H/HeJ mice or mice of some other strain (3-5 mice/test group) receive stepped doses of IL-1β by intraperitoneal administration. After two hours the animals are killed and the blood is collected for preparation of the serum. The serum glucose content is determined after reaction with glucose oxidase in a commercial calorimetric assay.

Where [7] appears, read: Burkitt's human lymphoma RAJI clone 1H7.

In the case of “MILRA-1: IL-1ra mutant N91→R (arginine in position 91 of the mature protein)”, the “IL-6 production, ID50” value in assay [1] was found to be 0.62 ng/mL. The “Binding to IL-1RII, ID50” value in assay [2] (setting [7]) came to 13.20 nM. Also, the “Binding to IL-1RI, ID50” value in assay [3] is given as 0.17 nM. Besides, the “Thymocyte proliferation to IL-1β 300 pg/ml, ID50” value in assay [4] came out at 1.78 ng/mL. Also, the “Neutrophilia, ID100” value in assay [5] was less than 0.0225 mg/kg. In assay [6], the “Hypoglycaemia, ID50” value is 0.128 mg/kg.

Regarding “MILRA-2: IL-1ra mutant T109→A (alanine in position 109 of the mature protein)”, the “IL-6 production, ID50” value in assay [1] is 1.12 ng/mL. The substance also came in with a Binding to IL-1RII, ID50 in assay [2] (RAJI clone 1H7, unit as printed in this cell) of 1.8 nM. Besides, the “Binding to IL-1RI, ID50” value in assay [3] is 0.19 nM. For the same substance, the “Thymocyte proliferation to IL-1β 300 pg/ml, ID50” value in assay [4] came out at 1.75 ng/mL.

For “MILRA-3: IL-1ra double mutant N91/T109→R/A”, in assay [2] (setting [7]), the “Binding to IL-1RII, ID50” value is recorded as 70.70 nM. Further, the “Binding to IL-1RI, ID50” value in assay [3] is reported as 0.22 nM. Also, in assay [4], the “Thymocyte proliferation to IL-1β 30 pg/ml, ID50” value amounted to 0.285 ng/mL. Also, in assay [6], the “Hypoglycaemia, ID50” value stood at 0.076 mg/kg.

As to “IL-1ra: wild type IL-1 receptor antagonist, a mature protein of 152 amino acids, used as reference standard [reference compound]”, in assay [1], the “IL-6 production, ID50” value was 3.60 ng/mL. For the same substance, the “Binding to IL-1RII, ID50” value in assay [2] (setting [7]) is 19.60 nM. The “Binding to IL-1RI, ID50” value in assay [3] is recorded as 0.34 nM. In assay [4], the “Thymocyte proliferation to IL-1β 30 pg/ml, ID50” value was found to be 0.813 ng/mL and the “Thymocyte proliferation to IL-1β 300 pg/ml, ID50” value was found to be 4.10 ng/mL. The “Neutrophilia, ID100” value in assay [5] was 0.225 mg/kg. Further, the “Hypoglycaemia, ID50” value in assay [6] stood at 0.968 mg/kg.
